Experimental data as given in patent US12065442B2, “Tropomyosin receptor kinase (TRK) degradation compounds and methods of use” (Cullgen (Shanghai), Inc., priority 2018, dated 2024).
Where two headings read alike, the source gives them in different places.

Tested on: KM12 cells
Assay: Cell viability assay (CellTiter-Glo) in KM12 cells
Type: cell-based
Conditions: Homo sapiens
[1] = 72 h, Table 3, KM12 cell viability, CellTiter-Glo, 3 days, read-out: IC50
[2] = 72 h, Table 2, KM12 cell viability, CellTiter-Glo, 3 days, read-out: IC50

| SMILES | IC50 [1] [nM] | IC50 [2] [nM] | other results |
| --- | --- | --- | --- |
| O=C1CCC(N2C(=O)c3ccc(NCCCCCCC(=O)N4CCN(c5cccc(-c6cnc7ccc(N8CCC[C@@H]8c8cccc(F)c8)nn67)n5)CC4)cc3C2=O)C(=O)N1 (stereo partly drawn) [TR-117, 2-(2,6-Dioxopiperidin-3-yl)-5-((7-(4-(6-(6-((R)-2-(3-fluorophenyl)pyrrolidin-1-yl)imidazo[1,2-b]pyridazin-3-yl)pyridin-2-yl)piperazin-1-yl)-7-oxoheptyl)amino)isoindoline-1,3-dione] | 4.3 | – | – |
| O=C(CN1CCN(c2ccc(C(=O)Nc3n[nH]c4ccc(Cc5cc(F)cc(F)c5)cc34)c(NC3CCOCC3)c2)CC1)NCCOCCOCCOCCOCCNc1ccc2c(c1)C(=O)N(C1CCC(=O)NC1=O)C2=O (stereo not shown) [TR-160, N-(5-(3,5-Difluorobenzyl)-1H-indazol-3-yl)-4-(4-(17-((2-(2,6-dioxopiperidin-3-yl)-1,3-dioxoisoindolin-5-yl)amino)-2-oxo-6,9,12,15-tetraoxa-3-azaheptadecyl)piperazin-1-yl)-2-((tetrahydro-2H-pyran-4-yl)amino)benzamide] | 4.8 | – | – |
| O=C(CN1CCN(c2ccc(C(=O)Nc3n[nH]c4ccc(Cc5cc(F)cc(F)c5)cc34)c(NC3CCOCC3)c2)CC1)NCCOCCOCCOCCOCCNc1cccc2c1C(=O)N(C1CCC(=O)NC1=O)C2=O (stereo not shown) [TR-150, N-(5-(3,5-Difluorobenzyl)-1H-indazol-3-yl)-4-(4-(17-((2-(2,6-dioxopiperidin-3-yl)-1,3-dioxoisoindolin-4-yl)amino)-2-oxo-6,9,12,15-tetraoxa-3-azaheptadecyl)piperazin-1-yl)-2-((tetrahydro-2H-pyran-4-yl)amino)benzamide] | 16.6 | – | – |
| Cc1ncsc1-c1ccc(CNC(=O)[C@@H]2C[C@@H](O)CN2C(=O)[C@@H](NC(=O)CCCC(=O)N2CCN(c3cccc(-c4cnc5ccc(N6CCC[C@@H]6c6cccc(F)c6)nn45)n3)CC2)C(C)(C)C)cc1 [CPD-012, (2S,4R)-1-((S)-2-(5-(4-(6-(6-((R)-2-(3-Fluorophenyl)pyrrolidin-1-yl)imidazo[1,2-b]pyridazin-3-yl)pyridin-2-yl)piperazin-1-yl)-5-oxopentanamido)-3,3-dimethylbutanoyl)-4-hydroxy-N-(4-(4-methylthiazol-5-yl)benzyl)pyrrolidine-2-carboxamide] | – | > 1000 | – |
| Cn1c(=O)n(C2CCC(=O)NC2=O)c2cccc(CCCN3CCN(c4cccc(-c5cnc6ccc(N7CCC[C@@H]7c7cccc(F)c7)nn56)n4)CC3)c21 (stereo partly drawn) [TR-240, 3-(4-(3-(4-(6-(6-((R)-2-(3-fluorophenyl)pyrrolidin-1-yl)imidazo[1,2-b]pyridazin-3-yl)pyridin-2-yl)piperazin-1-yl)propyl)-3-methyl-2-oxo-2,3-dihydro-1H-benzo[d]imidazol-1-yl)piperidine-2,6-dione] | – | – | IC50 (72 h, Table 4, KM12 cell viability, CellTiter-Glo, 3 days, read-out: IC50): 16 nM |
| O=C1CCC(N2C(=O)c3ccc(NC4CN(c5cccc(-c6cnc7ccc(N8CCC[C@@H]8c8cccc(F)c8)nn67)n5)C4)cc3C2=O)C(=O)N1 (stereo partly drawn) [TR-175, 2-(2,6-Dioxopiperidin-3-yl)-5-((1-(6-(6-((R)-2-(3-fluorophenyl)pyrrolidin-1-yl)imidazo[1,2-b]pyridazin-3-yl)pyridin-2-yl)azetidin-3-yl)amino)isoindoline-1,3-dione] | 40.8 | – | – |
| O=C1CCC(N2C(=O)c3ccc(NCCOCCOCCOCCOCCC(=O)N4CCN(c5ccc(C(=O)Nc6n[nH]c7ccc(Cc8cc(F)cc(F)c8)cc67)c(NC6CCOCC6)c5)CC4)cc3C2=O)C(=O)N1 (stereo not shown) [TR-140, N-(5-(3,5-Difluorobenzyl)-1H-indazol-3-yl)-4-(4-(1-((2-(2,6-dioxopiperidin-3-yl)-1,3-dioxoisoindolin-5-yl)amino)-3,6,9,12-tetraoxapentadecan-15-oyl)piperazin-1-yl)-2-((tetrahydro-2H-pyran-4-yl)amino)benzamide] | 1.6 | – | – |
| O=C(CN1CCN(c2cccc(-c3cnc4ccc(N5CCC[C@@H]5c5cccc(F)c5)nn34)n2)CC1)NCCCCCNc1ccc2c(c1)C(=O)N(C1CCC(=O)NC1=O)C2=O (stereo partly drawn) [TR-131, N-(5-((2-(2,6-dioxopiperidin-3-yl)-1,3-dioxoisoindolin-5-yl)amino)pentyl)-2-(4-(6-(6-((R)-2-(3-fluorophenyl)pyrrolidin-1-yl)imidazo[1,2-b]pyridazin-3-yl)pyridin-2-yl)piperazin-1-yl)acetamide] | 2.7 | – | – |
| O=C1CCC(N2C(=O)c3cccc(NCC(=O)N4CCN(c5cccc(-c6cnc7ccc(N8CCC[C@@H]8c8cccc(F)c8)nn67)n5)CC4)c3C2=O)C(=O)N1 (stereo partly drawn) [CPD-023, 2-(2,6-Dioxopiperidin-3-yl)-4-((2-(4-(6-(6-((R)-2-(3-fluorophenyl)pyrrolidin-1-yl)imidazo[1,2-b]pyridazin-3-yl)pyridin-2-yl)piperazin-1-yl)-2-oxoethyl)amino)isoindoline-1,3-dione] | – | 14.9 | – |
| O=C1CCC(N2C(=O)c3ccc(NCC(=O)N4CCN(c5ccc(C(=O)Nc6n[nH]c7ccc(Cc8cc(F)cc(F)c8)cc67)c(NC6CCOCC6)c5)CC4)cc3C2=O)C(=O)N1 (stereo not shown) [TR-144, N-(5-(3,5-Difluorobenzyl)-1H-indazol-3-yl)-4-(4-((2-(2,6-dioxopiperidin-3-yl)-1,3-dioxoisoindolin-5-yl)glycyl)piperazin-1-yl)-2-((tetrahydro-2H-pyran-4-yl)amino)benzamide] | 2.2 | – | – |
| O=C(CN1CCN(c2ccc(C(=O)Nc3n[nH]c4ccc(Cc5cc(F)cc(F)c5)cc34)c(NC3CCOCC3)c2)CC1)NCCCCCCCCNc1ccc2c(c1)C(=O)N(C1CCC(=O)NC1=O)C2=O (stereo not shown) [TR-159, N-(5-(3,5-Difluorobenzyl)-1H-indazol-3-yl)-4-(4-(2-((8-((2-(2,6-dioxopiperidin-3-yl)-1,3-dioxoisoindolin-5-yl)amino)octyl)amino)-2-oxoethyl)piperazin-1-yl)-2-((tetrahydro-2H-pyran-4-yl)amino)benzamide] | 30.4 | – | – |
| O=C1CCC(N2C(=O)c3ccc(NCC4CCN(c5cccc(-c6cnc7ccc(N8CCC[C@@H]8c8cccc(F)c8)nn67)n5)CC4)cc3C2=O)C(=O)N1 (stereo partly drawn) [TR-178, 2-(2,6-Dioxopiperidin-3-yl)-5-(((1-(6-(6-((R)-2-(3-fluorophenyl)pyrrolidin-1-yl)imidazo[1,2-b]pyridazin-3-yl)pyridin-2-yl)piperidin-4-yl)methyl)amino)isoindoline-1,3-dione] | 67.7 | – | – |
| Cn1c(=O)n(C2CCC(=O)NC2=O)c2cccc(CCCCN3CCN(c4cccc(-c5cnc6ccc(N7CCC[C@@H]7c7cccc(F)c7)nn56)n4)CC3)c21 (stereo partly drawn) [TR-241, 3-(4-(4-(4-(6-(6-((R)-2-(3-fluorophenyl)pyrrolidin-1-yl)imidazo[1,2-b]pyridazin-3-yl)pyridin-2-yl)piperazin-1-yl)butyl)-3-methyl-2-oxo-2,3-dihydro-1H-benzo[d]imidazol-1-yl)piperidine-2,6-dione] | – | – | IC50 (KM12, 72 h): 9 nM |
| Cc1ncsc1-c1ccc(CNC(=O)[C@@H]2C[C@@H](O)CN2C(=O)[C@@H](NC(=O)CNC(=O)CN2CCN(c3ccc(C(=O)Nc4n[nH]c5ccc(Cc6cc(F)cc(F)c6)cc45)c(NC4CCOCC4)c3)CC2)C(C)(C)C)cc1 [CPD-063, (2S,4R)-1-((S)-2-(2-(2-(4-(4-((5-(3,5-Difluorobenzyl)-1H-indazol-3-yl)carbamoyl)-3-((tetrahydro-2H-pyran-4-yl)amino)phenyl)piperazin-1-yl)acetamido)acetamido)-3,3-dimethylbutanoyl)-4-hydroxy-N-(4-(4-methylthiazol-5-yl)benzyl)pyrrolidine-2-carboxamide] | – | > 1000 | – |
| O=C(CN1CCN(c2ccc(C(=O)Nc3n[nH]c4ccc(Cc5cc(F)cc(F)c5)cc34)c(NC3CCOCC3)c2)CC1)NCCCNc1ccc2c(c1)C(=O)N(C1CCC(=O)NC1=O)C2=O (stereo not shown) [TR-167, N-(5-(3,5-Difluorobenzyl)-1H-indazol-3-yl)-4-(4-(2-((3-((2-(2,6-dioxopiperidin-3-yl)-1,3-dioxoisoindolin-5-yl)amino)propyl)amino)-2-oxoethyl)piperazin-1-yl)-2-((tetrahydro-2H-pyran-4-yl)amino)benzamide] | 3.3 | – | – |
| Cc1ncsc1-c1ccc(CNC(=O)[C@@H]2C[C@@H](O)CN2C(=O)[C@@H](NC(=O)CCCCCCCCCC(=O)N2CCN(c3ccc(C(=O)Nc4n[nH]c5ccc(Cc6cc(F)cc(F)c6)cc45)c(NC4CCOCC4)c3)CC2)C(C)(C)C)cc1 [CPD-035, (2S,4R)-1-((S)-2-(11-(4-(4-((5-(3,5-Difluorobenzyl)-1H-indazol-3-yl)carbamoyl)-3-((tetrahydro-2H-pyran-4-yl)amino)phenyl)piperazin-1-yl)-11-oxoundecanamido)-3,3-dimethylbutanoyl)-4-hydroxy-N-(4-(4-methylthiazol-5-yl)benzyl)pyrrolidine-2-carboxamide] | – | 300 | – |
| O=C(CN1CCN(c2ccc(C(=O)Nc3n[nH]c4ccc(Cc5cc(F)cc(F)c5)cc34)c(NC3CCOCC3)c2)CC1)NCCCCCNc1cccc2c1C(=O)N(C1CCC(=O)NC1=O)C2=O (stereo not shown) [TR-149, N-(5-(3,5-Difluorobenzyl)-1H-indazol-3-yl)-4-(4-(2-((5-((2-(2,6-dioxopiperidin-3-yl)-1,3-dioxoisoindolin-4-yl)amino)pentyl)amino)-2-oxoethyl)piperazin-1-yl)-2-((tetrahydro-2H-pyran-4-yl)amino)benzamide] | 4.6 | – | – |
| O=C1CCC(N2C(=O)c3cccc(NCCC(=O)N4CCN(c5ccc(C(=O)Nc6n[nH]c7ccc(Cc8cc(F)cc(F)c8)cc67)c(NC6CCOCC6)c5)CC4)c3C2=O)C(=O)N1 (stereo not shown) [CPD-051, N-(5-(3,5-difluorobenzyl)-1H-indazol-3-yl)-4-(4-(3-((2-(2,6-dioxopiperidin-3-yl)-1,3-dioxoisoindolin-4-yl)amino)propanoyl)piperazin-1-yl)-2-((tetrahydro-2H-pyran-4-yl)amino)benzamide] | – | 11 | – |
| O=C1CCC(N2C(=O)c3cccc(NCCOCCOCCOCCOCCOCCC(=O)N4CCN(c5ccc(C(=O)Nc6n[nH]c7ccc(Cc8cc(F)cc(F)c8)cc67)c(NC6CCOCC6)c5)CC4)c3C2=O)C(=O)N1 (stereo not shown) [CPD-054, N-(5-(3,5-difluorobenzyl)-1H-indazol-3-yl)-4-(4-(1-((2-(2,6-dioxopiperidin-3-yl)-1,3-dioxoisoindolin-4-yl)amino)-3,6,9,12,15-pentaoxaoctadecan-18-oyl)piperazin-1-yl)-2-((tetrahydro-2H-pyran-4-yl)amino)benzamide] | – | 13 | – |
